The record followed here is US20240287082A1, “NEW BENZODIAZEPINE DERIVATIVES AS GABA A GAMMA1 PAM” (Hoffmann-La Roche Inc., priority 2021, published 2024).

Like-named read-outs stand apart in the source and are kept apart here.

In test [1] the target is human GABAA α5β2γ1 receptor (Homo sapiens (Human), UniProt P31644+Q8N1C3). Nature of the test: Radioligand binding assay, competition for [3H]RO7239181, γ1-containing GABAA subtype α5β2γ1.
For test [2], the target named is human GABAA α2β2γ1 receptor (Homo sapiens (Human), UniProt P47869+Q8N1C3). Nature of the test: Radioligand binding assay, competition for [3H]RO7239181, γ1-containing GABAA subtype α2β2γ1. The settings on record: for γ2/γ1 Selectivity Ratio: Ki α1β3γ2 (nM)/Ki α2β2γ1 (nM); for LogSel: Log[Ki α1β3γ2 (nM)/Ki α2β2γ1 (nM)].
Test [3] concerns the target human GABAA α1β2γ1 receptor (Homo sapiens (Human), UniProt P14867+Q8N1C3). Nature of the test: Radioligand binding assay, competition for [3H]RO7239181, γ1-containing GABAA subtype α1β2γ1. The settings on record: membranes of HEK293F cells, [3H]RO7239181 20-30 nM, mean of two determinations. As for the experimental part:
The affinity of compounds at GABAA γ1 subunit-containing receptors was measured by competition for [^3H]RO7239181 (67.3 Ci/mmol; Roche) binding to membranes from HEK293F cells (ThermoFisher R^79007) expressing human (transiently transfected) receptors of composition α5β2γ1, α2β2γ1, α1β2γ1.
Harvested pellets from HEK293F cells expressing the different GABAA receptor subtypes were resuspended in Mannitol Buffer pH 7.2-7.4 (Mannitol 0.29M, Triethylamine 10 mM, Acetic acid 10 mM, EDTA 1 mM plus protease inhibitors (20 tablets Complete, Roche Diagnostics Cat. No. 05 056 489 001 per liter)), washed two times and then resuspended at 1:10 to 1:15 dilution in the same buffer. Cell disruption was performed by stirring the suspension in a Parr vessel #4637 at 435 psi for 15 minutes, and then the suspensions were centrifuged at 1000×g for 15 minutes at 4° C. (Beckman Avanti J-HC: rotor JS-4.2). The supernatant (S1) was transferred in a 21 Schott flask and the pellet (P1) was resuspended with Mannitol Buffer up to 175 ml. The resuspended pellet was transferred into a 250 ml Corning centrifugal beaker and centrifuged at 1500×g for 10 minutes at 4° C. (Beckman Avanti J-HC: rotor JS-4.2). The supernatant (S1) was then transferred in the 21 Schott flask and the pellet was discarded. The supernatants (S1) were centrifuged in 500 ml Beckman polypropylene centrifugal beaker at 15 000×g for 30 minutes at 4° C. (Beckman Avanti J-20 XP: rotor JLA-10.500). The pellet (P2) was resuspended with Mannitol Buffer 1:1 and frozen at −80° C. The supernatant (S2) was centrifuged in 100 ml Beckman polypropylene centrifugal tubes at 48000×g for 50 minutes at 4° C. (Beckman Avanti J-20 XP: rotor JA-18). The supernatant (S3) was discarded and the pellet (P3) was resuspended with 1:1 Mannitol Buffer. The P2 and P3 protein concentration was determined with the BIORAD Standard assay method with bovine serum albumin as standard and measured on the NANO-Drop 1000. The membrane suspension was aliquots (500 μl per tube) and stored at −80° C. until required.
Membrane homogenates were resuspended and polytronised (Polytron PT1200E Kinematica AG) in Potassium Phosphate 10 mM, KCl 100 mM binding buffer at pH 7.4 to a final assay concentration determined with a previous experiment.
Assays were incubated to equilibrium for 1 hour at 4° C. and then, membranes were filtered onto unifilter (96-well white microplate with bonded GF/C filters preincubated 20-50 minutes in 0.3% Polyethylenimine) with a Filtermate 196 harvester (Packard BioScience) and washed 4 times with cold Potassium Phosphate 10 mM pH 7.4, KCl 100 mM binding buffer. After anhydrousing, filter-retained radioactivity was detected by liquid scintillation counting. Ki values were calculated using Excel-Fit (Microsoft) and are the means of two determinations.

Setting [4] is: read-out: Ki h-GABAA α2β2γ1, Table 2, membranes of HEK293F cells, [3H]RO7239181.

What is called Ki is the equilibrium dissociation constant of an inhibitor or competing ligand from its target. In the case of `C[C@@H]1N=C(c2c(F)cccc2F)c2c(ccc(C(F)(F)F)c2Cl)-n2ccc(=O)nc21` [Example 10, (5S)-8-chloro-7-(2,6-difluorophenyl)-5-methyl-9-(trifluoromethyl)-5H-pyrimido[1,2-a][1,4]benzodiazepin-3-one], the Ki in test [1] was determined as 3 nM; in test [2], 54.6 nM; in test [2] (setting [4]) it was 54.6 nM; in test [3] it was 159 nM. In test [2], the “γ2/γ1 Selectivity Ratio” value was found to be 112.1. Also, in test [2], the LogSel was determined as 2.05.

In the case of `O=c1ccn2c(n1)CN=C(c1c(F)cccc1F)c1c-2ccc(Cl)c1Cl` [Example 2, 8,9-dichloro-7-(2,6-difluorophenyl)-5H-pyrimido[1,2-a][1,4]benzodiazepin-3-one], the inhibition constant (Ki) in test [1] was determined as 1.1 nM; in test [2], 9.7 nM; in test [2] (setting [4]) it was 9.7 nM; in test [3], 8.6 nM. Further, in test [2], the “γ2/γ1 Selectivity Ratio” value was found to be 47.7. Moreover, the LogSel in test [2] was determined as 1.68.

As for `C[C@@H]1N=C(c2c(F)cccc2F)c2c(ccc(Cl)c2Cl)-n2ccc(=O)nc21` [Example 4, (5S)-8,9-dichloro-7-(2,6-difluorophenyl)-5-methyl-5H-pyrimido[1,2-a][1,4]benzodiazepin-3-one], the Ki in test [1] is 1.5 nM; in test [2], 13.3 nM; in test [2] (setting [4]), 13.3 nM; in test [3] it was 25.6 nM. Further, the “γ2/γ1 Selectivity Ratio” value in test [2] worked out at 68.7. The compound further had a LogSel in test [2] of 1.84.

Consider `Cc1cn2c(nc1=O)[C@H](C)N=C(c1c(F)cccc1F)c1c-2ccc(C(F)(F)F)c1Cl` [Example 9, (5S)-8-chloro-7-(2,6-difluorophenyl)-2,5-dimethyl-9-(trifluoromethyl)-5H-pyrimido[1,2-a][1,4]benzodiazepin-3-one], for which the Ki is 3.1 nM in test [1], 28.4 nM in test [2], 28.4 nM in test [2] (setting [4]) and 98.1 nM in test [3]. Moreover, in test [2], the “γ2/γ1 Selectivity Ratio” value is 209.4. In test [2], this compound displayed a LogSel of 2.32.

Turning to `C[C@@H]1N=C(c2c(F)cccc2F)c2c(ccc(Br)c2Cl)-n2ccc(=O)nc21` [Example 13, (5S)-9-bromo-8-chloro-7-(2,6-difluorophenyl)-5-methyl-5H-pyrimido[1,2-a][1,4]benzodiazepin-3-one], the Ki in test [1] was found to be 1 nM; in test [2] it was 11.4 nM; in test [2] (setting [4]) it was 11.4 nM; in test [3], 17.6 nM. Also, the “γ2/γ1 Selectivity Ratio” value in test [2] stood at 53.3. The LogSel in test [2] is 1.73.
